The source of these data is patent US11560370B1, “5-membered heteroaryl carboxamide compounds for treatment of HBV” (Assembly Biosciences, Inc., priority 2018, dated 2023).

This experiment deals with HBV. Nature of the experiment: Viral production from HepAD38 cells, viral load by qPCR of HBV core sequence. Conditions: 5 days, supernatant HBV DNA by qPCR, read-out: Viral Load EC50 Activity range. The class given is cell-based. In a few lines: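 HepAD38 cells in tetracycline-free medium with 2% FBS, 50,000 cells/well, treated 5 days at 37° C. with compound from 10 μM top concentration (1% DMSO final). Supernatant HBV DNA measured by TaqMan qPCR of core sequence against standards, versus DMSO wells; viability by CellTiter-Glo; EC50/CC50 by four-parameter fit.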
A general note: In qPCR the cycle at which signal appears reflects the starting amount.

Setting [1] is: Hepatitis B virus, HePAD38, 120 h.

Molecules are shown by their SMILES. Where two headings read alike, the source gives them in different places.

Take `CCC1OCC2(CC3CC(c4nn(C)c(N)c4C(=O)Nc4ccc(F)c(Cl)c4)CC3C2)O1` (single isomer, unassigned) [AIA-255-3, 5-Amino-N-(3-chloro-4-fluorophenyl)-3-(2′-ethylhexahydro-1H-spiro[pentalene-2,4′-[1,3]dioxolan]-5-yl)-1-methyl-1H-pyrazole-4-carboxamide]: under setting [1], the concentration giving a half-maximal response (EC50) was less than 100 nM.

As to `Cn1nc(C2CC3CC(O)(C[S+]([O-])CC(F)(F)F)CC3C2)c(C(=O)Nc2ccc(F)c(Cl)c2)c1N` (centres unmarked) [AIA-259-A, 5-Amino-N-(3-chloro-4-fluorophenyl)-3-((2r,5r)-5-hydroxy-5-((2,2,2-trifluoroethylsulfinyl)methyl)octahydropentalen-2-yl)-1-methyl-1H-pyrazole-4-carboxamide], the EC50 under setting [1] was less than 100 nM.

Consider `CCOC(=O)C=C1CC2CC(c3nn(C)c(N)c3C(=O)Nc3ccc(F)c(Cl)c3)CC2C1` (centres unmarked) [AIA-017], for which the EC50 was less than 100 nM.

For `Cn1nc(C2CC3CC(N4CCCS4(=O)=O)CC3C2)c(C(=O)Nc2ccc(F)c(Cl)c2)c1N` (centres unmarked) [AIA-044], the 50% effective concentration (EC50) was less than 100 nM.

For `Cn1nc(C2CC3CCCC3C2)c(C(=O)Nc2ccc(F)c(Cl)c2)c1N` (centres unmarked) [AIA-232], the half-maximal effective concentration (EC50) is less than 100 nM.

With `Cn1nc([C@H]2CC3C[C@](O)(CS(C)(=O)=O)CC3C2)c(C(=O)Nc2ccc(F)c(Cl)c2)c1N` (some centres unmarked) [AIA-227-2, 5-Amino-N-(3-chloro-4-fluorophenyl)-3-((2s,5s)-5-hydroxy-5-(methylsulfonylmethyl)octahydropentalen-2-yl)-1-methyl-1H-pyrazole-4-carboxamide], under setting [1], the concentration giving a half-maximal response (EC50) is less than 100 nM.

`Cn1nc(C2CC3CN(C(=O)OC(C)(C)C)CC3C2)c(C(=O)Nc2ccc(F)c(Cl)c2)c1N` (centres unmarked) [AIA-005]: the EC50 was less than 100 nM.

Regarding `Cn1nc(C2CC3CSCC3C2)c(C(=O)Nc2ccc(F)c(Cl)c2)c1N` (centres unmarked) [AIA-055], the concentration for a half-maximal effect (EC50) was less than 100 nM.

As for `CC(C)Oc1ccc(C2CCC(c3nn(C)c(N)c3C(=O)Nc3ccc(F)c(Cl)c3)C2)cc1` (centres unmarked) [AIA-296, 5-Amino-N-(3-chloro-4-fluorophenyl)-3-(3-(4-isopropoxyphenyl)cyclopentyl)-1-methyl-1H-pyrazole-4-carboxamide], under setting [1], the EC50 was less than 100 nM.

`COC(=O)N1CC2CC(c3nn(C)c(N)c3C(=O)Nc3ccc(F)c(Cl)c3)CC2C1` (centres unmarked) [AIA-022]: the EC50 under setting [1] was less than 100 nM.

`Cn1nc(C2CC3CC(O)(CN4CCCCC4)CC3C2)c(C(=O)Nc2ccc(F)c(Cl)c2)c1N` (single isomer, unassigned) [AIA-363-2, 5-Amino-N-(3-chloro-4-fluorophenyl)-3-(5-hydroxy-5-(piperidin-1-ylmethyl)octahydropentalen-2-yl)-1-methyl-1H-pyrazole-4-carboxamide]: the EC50 was in the range of 100 to 500 nM.

For the compound `Cn1nc(C2CC3CC(O)(CS(=O)(=O)CCO)CC3C2)c(C(=O)Nc2ccc(F)c(Cl)c2)c1N` (single isomer, unassigned) [AIA-266-1, 5-Amino-N-(3-chloro-4-fluorophenyl)-3-(5-hydroxy-5-(((2-hydroxyethyl)sulfonyl)methyl)octahydropentalen-2-yl)-1-methyl-1H-pyrazole-4-carboxamide], the EC50 under setting [1] is less than 100 nM.

`Cn1cc(C2CCC(c3nn(C)c(N)c3C(=O)Nc3ccc(F)c(Cl)c3)C2)cn1` (single isomer, unassigned) [AIA-004-D, 5-Amino-N-(3-chloro-4-fluorophenyl)-1-methyl-3-(3-(1-methyl-1H-pyrazol-4-yl)cyclopentyl)-1H-pyrazole-4-carboxamide]: the EC50 was less than 100 nM.

Consider `Cn1nc(C2CC3CC(O)(C4CC4)CC3C2)c(C(=O)Nc2ccc(F)c(Cl)c2)c1N` (centres unmarked) [AIA-077, 5-Amino-N-(3-chloro-4-fluorophenyl)-3-(5-cyclopropyl-5-hydroxyoctahydropentalen-2-yl)-1-methyl-1H-pyrazole-4-carboxamide], for which the EC50 under setting [1] was less than 100 nM.

Regarding `COc1cc(C(=O)NCCS(C)(=O)=O)ccc1C1CCC(c2nn(C)c(N)c2C(=O)Nc2ccc(F)c(Cl)c2)C1` (centres unmarked) [AIA-387-2, 5-Amino-N-(3-chloro-4-fluorophenyl)-3-(3-(2-methoxy-4-((2-(methylsulfonyl)ethyl)carbamoyl)phenyl)cyclopentyl)-1-methyl-1H-pyrazole-4-carboxamide], the EC50 is less than 100 nM.

In the case of `Cn1cc(C(=O)Nc2ccc(F)c(Cl)c2)c(C2CC3CC(=O)CC3C2)n1` (centres unmarked) [AIA-394], the EC50 lay within 500 to 10000 nM.

With `Cn1nc(C2CC(c3ccccc3)C2)c(C(=O)Nc2ccc(F)c(Cl)c2)c1N` (single isomer, unassigned) [AIA-224A, 5-Amino-N-(3-chloro-4-fluorophenyl)-1-methyl-3-(3-phenylcyclobutyl)-1H-pyrazole-4-carboxamide], the EC50 is less than 100 nM.

With `Cn1nc(C2CC3CC(O)(CSCCO)CC3C2)c(C(=O)Nc2ccc(F)c(Cl)c2)c1N` (single isomer, unassigned) [AIA-283-1, 5-Amino-N-(3-chloro-4-fluorophenyl)-3-(5-hydroxy-5-(((2-hydroxyethyl)thio)methyl)octahydropentalen-2-yl)-1-methyl-1H-pyrazole-4-carboxamide], the concentration giving a half-maximal response (EC50) under setting [1] is less than 100 nM.

As for `Cn1nc(C2CC3CC(N4CCOC4=O)CC3C2)c(C(=O)Nc2ccc(F)c(Cl)c2)c1N` (centres unmarked) [AIA-046], the EC50 was less than 100 nM.

On to `Cn1nc(C2CC3CC(O)(CS(=O)(=O)C4CC4)CC3C2)c(C(=O)Nc2ccc(F)c(Cl)c2)c1N` (single isomer, unassigned) [AIA-252-2, 5-Amino-N-(3-chloro-4-fluorophenyl)-3-(5-((cyclopropylsulfonyl)methyl)-5-hydroxyortahydropentalen-2-yl)-1-methyl-1H-pyrazole-4-carboxamide], for which the 50% effective concentration (EC50) under setting [1] is less than 100 nM.

`Cn1cnc(C2CCC(c3nn(C)c(N)c3C(=O)Nc3ccc(F)c(Cl)c3)C2)c1` (centres unmarked) [AIA-280, 5-Amino-N-(3-chloro-4-fluoro-phenyl)-1-methyl-3-[3-(1-methylimidazol-4-yl)cyclopentyl]pyrazole-4-carboxamide]: under setting [1], the EC50 lay within 100 to 500 nM.

For `Cn1cc(C2CCC(c3nn(C)c(N)c3C(=O)Nc3ccc(F)c(Cl)c3)C2)cn1` (single isomer, unassigned) [AIA-004-C, 5-Amino-N-(3-chloro-4-fluorophenyl)-1-methyl-3-(3-(1-methyl-1H-pyrazol-4-yl)cyclopentyl)-1H-pyrazole-4-carboxamide], the EC50 lay within 100 to 500 nM.

Consider `Cn1nc([C@@H]2CC3C/C(=N/O)C[C@@H]3C2)c(C(=O)Nc2ccc(F)c(Cl)c2)c1N` (some centres unmarked) [AIA-032-A], for which the half-maximal effective concentration (EC50) is less than 100 nM.

Regarding `CN1CC2CC(c3nn(C)c(N)c3C(=O)Nc3ccc(F)c(Cl)c3)CC2C1` (centres unmarked) [AIA-052, 5-Amino-N-(3-chloro-4-fluorophenyl)-1-methyl-3-(2-methyloctahydrocyclopenta [c]pyrrol-5-yl)-1H-pyrazole-4-carboxamide], the EC50 under setting [1] lay in the range of 500 to 10000 nM.

On to `CC(C)OCC1(O)CC2CC(c3nn(C)c(N)c3C(=O)Nc3ccc(F)c(Cl)c3)CC2C1` (single isomer, unassigned) [AIA-339-2, 5-Amino-N-(3-chloro-4-fluorophenyl)-3-(5-hydroxy-5-(isopropoxymethyl)octahydropentalen-2-yl)-1-methyl-1H-pyrazole-4-carboxamide], for which the EC50 lay in the range of 100 to 500 nM.

In the case of `Cn1nc(C2CC3CC(O)(CSC(C)(C)C)CC3C2)c(C(=O)Nc2ccc(F)c(Cl)c2)c1N` (centres unmarked) [AIA-262-1, 5-Amino-3-(5-((tert-butylthio)methyl)-5-hydroxyoctahydropentalen-2-yl)-N-(3-chloro-4-fluorophenyl)-1-methyl-1H-pyrazole-4-carboxamide], the concentration for a half-maximal effect (EC50) under setting [1] is less than 100 nM.

The EC50 is the midpoint of the concentration-response curve.
